Assay results reported in patent publication US8586638B2, “Parakeratosis inhibitor and skin preparation for external use” (priority 2003, dated 2013).
Where a SMILES comes first, the peptide text is derived from it. [ ]: non-standard residue; d: D form. Sar = CNCC(=O)O

What was measured:
[1] = tested on: parakeratosis and skin roughness caused by oleic acid on the back of hairless mice; test: Parakeratosis inhibition effect test: oleic acid applied to the back of hairless mice, visual skin roughness and parakeratosis level; format: in vivo, hairless mice (HR-1); parameters: key to Evaluation Visual (mean of 4 mice), skin roughness: 0.0 = no roughness, 2.0 = control application; 0.25 steps; conditions: for Evaluation Parakeratosis (mean of 4 mice): control 2.0; for Evaluation Visual (mean of 4 mice), skin roughness: score 0.0 no roughness, 2.0 control; for effect of inhibiting parakeratosis (conclusion from Table 4) / effect of inhibiting parakeratosis (conclusion from Table 1): hairless mice, oleic acid; for effect of inhibiting parakeratosis (conclusion from Table 4): fourth embodiment; for effect of inhibiting parakeratosis (conclusion from Table 1): first embodiment
Experimental: A 3 weight % water solution (including 30 weight % ethanol) was prepared as the evaluation specimen of the glycine derivatives in accordance with the invention 1. The pH was regulated to the range between 7.0 to 7.5, by using hydrochloric acid and sodium hydroxide. When the solubility was low, the solution was adjusted accordingly.
100 microliters of 10 weight % oleic acid (solvent: ethanol) was applied to the back of hairless mice (HR-1, Hoshino laboratory animals). Thereafter, 100 microliters of sample solution was applied (glycine derivatives in accordance with said invention 1) at each time. This procedure was repeated for 3 days. The day after the application, the skin condition of the backs was observed by using a CCD camera to evaluate the skin roughness (stratified ablation of the skin surface stratum corneum and red spots). The skin condition was evaluated visually, with scoring the skin condition of control application to 2.0 and the skin condition of no roughness to 0.0, in a 0.25 point step in response to the skin condition. At the same time, the skin surface stratum corneum of the back of hairless mice was peeled off by using a tape for staining the nucleus with haematoxylin to observe the degrees of parakeratosis (parakeratosis level) and evaluate in 0.25 step in the range from 1.0 to 3.0. The higher evaluation points indicates the larger number of parakeratotic corneocytes count, i.e., severer parakeratosis.
The samples to be evaluated of the glycine derivatives and the salts thereof as well as the aminosulfuric acid derivatives and the salts thereof in accordance with the invention 2 were prepared mainly 3 weight % solution (including 30 weight % ethanol, excluding Hydantoic acid and ACES which include 20 weight % ethanol). pH was regulated by using hydrochloric acid or sodium hydroxide to be 7.0 to 7.5. When the solubility was low, then the solution was prepared accordingly.
100 microliters of 10 weight % oleic acid (solvent: ethanol) was applied to the back of Hairless mice (HR-1, Hoshino laboratory animals) Thereafter, 100 microliters of sample solution (glycine derivatives in accordance with the invention 2) was applied thereon at each time. This procedure was repeated for 3 days. The day after the application, the skin condition of the backs was observed by using a CCD camera to evaluate the skin roughness (stratified ablation of the skin surface stratum corneum and red spots). The skin condition was evaluated visually, with scoring the skin condition of control application to 2.0 and the skin condition of no roughness to 0.0, in a 0.25 point step in response to the skin condition. At the same time, the skin surface stratum corneum of the back of hairless mice was peeled off by using a tape for staining the nucleus with haematoxylin to observe the degrees of parakeratosis and evaluate in 0.25 step in the range from 1.0 to 3.0. The higher evaluation points indicates the larger number of parakeratotic corneocytes count, i.e., severer parakeratosis.

[2] = tested on: pores on the cheek of healthy male subjects; test: Effect of shrinking human pores: replica evaluation of cheek pores; format: in vivo; conditions: for Replica Evaluation (mean of n = 5), difference of pore size score before/after application: twice a day for a month, cheek; for effect of pore-shrinking (conclusion from Table 5) / pore-shrinking effect (conclusion from Table 2): human cheek; for effect of pore-shrinking (conclusion from Table 5): fifth embodiment; for pore-shrinking effect (conclusion from Table 2): second embodiment
Experimental: An experiment of application of sample twice a day for a month on the cheek of healthy male subjects, was conducted with each group consisting of 5 individuals. 3 weight % solution of the glycine derivatives in accordance with the invention 1 (including 15 weight % of ethanol) was prepared. pH was regulated to the range between 7.0 and 7.5, by using hydrochloric acid and/or sodium hydroxide. Control was 15 weight % ethanol solution. Said 3 weight % solution was applied to one side and said control solution was applied to the other side.
Replicas were prepared prior to and after the application to observe the change of form of pores in the same spot under a three-dimensional laser scanning microscope. The size of pores was evaluated visually 13 steps from 1 to 13 (larger number indicates larger pore size), and the difference between the resulted evaluations before/after the application experiment was then calculated to study the effectiveness of each specimen.
An experiment of application of sample twice a day for a month on the cheek of healthy male subjects, was conducted with each group consisting of 5 individuals. 3 weight % solution of the glycine derivatives and the salts thereof as well as the aminosulfuric acid derivatives and the salts thereof in accordance with the invention 2 (including 15 weight % of ethanol), 2 weight % solution of ACES (including 15 weight % of ethanol), 3 weight % solution of CAPS (including 15 weight % of ethanol), and 3 weight % solution of CAPSO (including 15 weight % of ethanol) were prepared. pH was regulated to the range between 7.0 and 7.5, by using hydrochloric acid and/or sodium hydroxide. 15 weight % ethanol solution was used as control. Said sample solutions was applied to one side, and said control solution was applied to the other side.

[3] = tested on: skin roughness caused by oleic acid on the back of hairless mice; test: Inhibitory effect on skin roughness by the application of oleic acid (TEWL value); format: in vivo, hairless mice (HR-1); parameters: ΔTEWL: unit not given here; conditions: for decrease of delta-TEWL value as compared to the control solution (conclusion from Table 6): hairless mice, oleic acid, seventh embodiment; for ΔTEWL: after 10 weight % oleic acid, 3 days, four mice per group, control 12.0
Experimental: To study the inhibitory effect on the skin roughness by the application of oleic acid by the glycine derivatives and the salts thereof as well as the aminosulfuric acid derivatives and the salts thereof in accordance with the invention 2, the […] (TEWL value) before and after the application was measured to compare the difference therebetween with the value of control (control solution) in order to determine the effect. The preparation of samples and the application procedure were in accordance with the embodiment 4. The TEWL value was measured by means of TEWA meter TM210 (Courage+Khazaka Inc.).
100 microliters of 10 weight % oleic acid (solvent: ethanol) was applied to the back of hairless mice (HR-1, four in each group). Thereafter, 100 microliters of sample solutions (glycine derivatives and the salts thereof as well as the aminosulfuric acid derivatives and the salts thereof) in accordance with the invention 2 were applied at each time. This procedure was repeated for 3 days. The day after the application, TEWL value of the back of mice was measured and the values were averaged. The larger delta-TEWL value indicates severer aggravation of skin roughness.

[4] = Table 4, sample 1 weight % in aqueous 30 weight % ethanol (ACES: 20 weight % ethanol), range 1.0 to 3.0
[5] = Table 4, sample 1 weight % in aqueous 30 weight % ethanol (ACES: 20 weight % ethanol)
[6] = Table 4, sample 3 weight % in aqueous 30 weight % ethanol (hydantoic acid: 20 weight % ethanol), range 1.0 to 3.0, higher = severer
[7] = Table 4, sample 3 weight % in aqueous 30 weight % ethanol (hydantoic acid: 20 weight % ethanol)
[8] = Table 5, 3.0 weight % solution (15 weight % ethanol), control 0.3
[9] = sample 3 weight %, larger = severer roughness
[10] = sample 3 weight % in aqueous 30 weight % ethanol, after 10 weight % oleic acid, 3 days, range 1.0 to 3.0, higher = severer
[11] = sample 3 weight % in aqueous 30 weight % ethanol, after 10 weight % oleic acid, 3 days
[12] = 3 weight % solution (15 weight % ethanol), 13 steps, larger = larger pore, control 0.2

For `NC(=O)CNCCS(=O)(=O)O` [ACES, N-(2-acetamide)-2-aminoethanesulfonic acid], the “Evaluation Parakeratosis (mean of 4 mice)” value (from here on “Evaluation Parakeratosis”) [1, 4] was 1.2, the “Evaluation Visual (mean of 4 mice), skin roughness” value (“Evaluation Visual (mean of 4 mice)” for short) [1, 5] was 1.4 and the “effect of inhibiting parakeratosis (conclusion from Table 4)” value [1] was “have the effect of inhibiting parakeratosis”. For the same molecule, the “Replica Evaluation (mean of n = 5), difference of pore size score before/after application” value ([2]; Table 5, 2.0 weight % solution (15 weight % ethanol), control 0.3) was −1.5, the “effect of pore-shrinking (conclusion from Table 5)” value (“effect of pore-shrinking” below) [2] was “demonstrated the effect of pore-shrinking” and the “decrease of delta-TEWL value as compared to the control solution (conclusion from Table 6)” value (“decrease of delta-TEWL value” for short) [3] was “significant decrease of delta-TEWL value”. It also gave a ΔTEWL ([3]; sample 1 weight %) of 6.9.
With `O=S(=O)(O)CCCNC1CCCCC1` [CAPS, 3-(cyclohexyl-amino)propane sulfonic acid] the “Evaluation Parakeratosis” value [1, 6] was 1.2, the “Evaluation Visual (mean of 4 mice)” value [1, 7] was 1.3 and the “effect of inhibiting parakeratosis (conclusion from Table 4)” value [1] was “have the effect of inhibiting parakeratosis”. The “Replica Evaluation (mean of n = 5), difference of pore size score before/after application” value [2, 8] was −1.4, the “effect of pore-shrinking” value [2] was “demonstrated the effect of pore-shrinking” and the “decrease of delta-TEWL value” value [3] was “significant decrease of delta-TEWL value”. The ΔTEWL [3, 9] was 8.1.
`O=S(=O)(O)CC(O)CNC1CCCCC1` (centres unmarked) [CAPSO, 3-(cyclohexyl-amino)-2-hydroxy-propane-sulfonic acid] was tested, and the “Evaluation Parakeratosis” value [1, 6] was 1.1, the “Evaluation Visual (mean of 4 mice)” value [1, 7] was 1.3 and the “effect of inhibiting parakeratosis (conclusion from Table 4)” value [1] was “have the effect of inhibiting parakeratosis”. The “Replica Evaluation (mean of n = 5), difference of pore size score before/after application” value [2, 8] was −1.6, the “effect of pore-shrinking” value [2] was “demonstrated the effect of pore-shrinking” and the “decrease of delta-TEWL value” value [3] was “significant decrease of delta-TEWL value”. It also gave a ΔTEWL [3, 9] of 7.9.
For `CC(=O)N[C@@H](CCC(=O)O)C(=O)O` [N-acetyl-L-glutamic acid], the “effect of inhibiting parakeratosis (conclusion from Table 1)” value [1] was “have the effect of inhibiting parakeratosis”, the “Evaluation Parakeratosis” value [1, 10] was 1.2 and the “Evaluation Visual (mean of 4 mice)” value [1, 11] was 1.2. The “Replica Evaluation (mean of n = 5), difference of pore size score before/after application” value [2, 12] was −0.8 and the “pore-shrinking effect (conclusion from Table 2)” value (“pore-shrinking effect” for short) [2] was “pore-shrinking effect was observed”.
With `NCCC(=O)O` [beta-alanine] the “effect of inhibiting parakeratosis (conclusion from Table 1)” value [1] was “have the effect of inhibiting parakeratosis”, the “Evaluation Parakeratosis” value [1, 10] was 1.5 and the “Evaluation Visual (mean of 4 mice)” value [1, 11] was 1.6. For the same molecule, the “Replica Evaluation (mean of n = 5), difference of pore size score before/after application” value [2, 12] was −0.9 and the “pore-shrinking effect” value [2] was “pore-shrinking effect was observed”.
`CN(CC(=O)O)C(=O)CN` [glycyl-sarcosine, glycyl sarcosine] (H-Gly-[Sar]-OH) was tested, and the “Evaluation Parakeratosis” value [1, 6] was 1.4, the “Evaluation Visual (mean of 4 mice)” value [1, 7] was 1.5 and the “effect of inhibiting parakeratosis (conclusion from Table 4)” value [1] was “have the effect of inhibiting parakeratosis”. The “Replica Evaluation (mean of n = 5), difference of pore size score before/after application” value [2, 8] was −0.8 and the “effect of pore-shrinking” value [2] was “demonstrated the effect of pore-shrinking”.
In the case of `O=C(O)CNC(=O)c1ccccc1` [hippuric acid, reference compound], the “Evaluation Parakeratosis” value [1, 4] is reported as 1.9, the “Evaluation Visual (mean of 4 mice)” value [1, 5] is reported as 1.8 and the ΔTEWL ([3]; sample 1 weight %) is reported as 10.5.
For `O=C1CNC(=O)N1` [hydantoin, reference compound], the “Evaluation Parakeratosis” value [1, 4] was 2.0, the “Evaluation Visual (mean of 4 mice)” value [1, 5] was 2.1 and the “effect of inhibiting parakeratosis (conclusion from Table 4)” value [1] was “did not exhibit such effect”. It also gave a ΔTEWL ([3]; sample 1 weight %) of 17.6.
`CC(C(=O)O)N1CCOCC1` (centres unmarked) [methylmorpholino acetate, methylmorpholino acetic acid, reference compound] was tested, and the “Evaluation Parakeratosis” value [1, 6] was 2.0, the “Evaluation Visual (mean of 4 mice)” value [1, 7] was 1.9 and the ΔTEWL [3, 9] was 10.8.
With `O=C(O)CN(CC(=O)O)CC(=O)O` [nitrilotriacetate, nitrilotriacetic acid, reference compound] the “Evaluation Parakeratosis” value ([1]; Table 4, sample 0.4 weight % in aqueous 30 weight % ethanol, range 1.0 to 3.0) was 2.0, the “Evaluation Visual (mean of 4 mice)” value ([1]; Table 4, sample 0.4 weight % in aqueous 30 weight % ethanol) was 1.9 and the ΔTEWL ([3]; sample 0.4 weight %) was 11.5.
`O=C(O)CNC(=O)Cc1ccccc1` [phenaceturic acid] was tested, and the “effect of inhibiting parakeratosis (conclusion from Table 1)” value [1] was “have the effect of inhibiting parakeratosis”, the “Evaluation Parakeratosis” value [1, 10] was 1.1 and the “Evaluation Visual (mean of 4 mice)” value [1, 11] was 1.2. For the same molecule, the “Replica Evaluation (mean of n = 5), difference of pore size score before/after application” value [2, 12] was −0.8 and the “pore-shrinking effect” value [2] was “pore-shrinking effect was observed”.
For `O=C(O)CNCP(=O)(O)O` [phosphomethylglycine, phosphonomethylglycine, reference compound], the “Evaluation Parakeratosis” value [1, 4] was 2.1, the “Evaluation Visual (mean of 4 mice)” value [1, 5] was 1.9 and the ΔTEWL ([3]; sample 1 weight %) was 11.4.
For `CNCC(=O)O` [sarcosine, N-methylglycine], the “effect of inhibiting parakeratosis (conclusion from Table 1)” value [1] was “have the effect of inhibiting parakeratosis”, the “Evaluation Parakeratosis” value [1, 10] was 1.2 and the “Evaluation Visual (mean of 4 mice)” value [1, 11] was 1.3. For the same molecule, the “Replica Evaluation (mean of n = 5), difference of pore size score before/after application” value [2, 12] was −1.3 and the “pore-shrinking effect” value [2] was “pore-shrinking effect was observed”.
`O=C(O)CNC(CO)(CO)CO` [tricine, reference compound] was tested, and the “Evaluation Parakeratosis” value ([1]; Table 4, sample 2 weight % in aqueous 30 weight % ethanol, range 1.0 to 3.0) was 2.1, the “Evaluation Visual (mean of 4 mice)” value ([1]; Table 4, sample 2 weight % in aqueous 30 weight % ethanol) was 2.0 and the ΔTEWL ([3]; sample 2 weight %) was 12.2.
